These results are taken from patent publication US8338565B2, “Macrocyclic compounds for inhibition of tumor necrosis factor alpha” (Ensemble Therapeutics Corporation, priority 2008, dated 2012).

Numbered stars: 1 amine (or outer) side, 2 acyl side, 3 side chain; on linkers, the order of the positions; unused ones are H or OH. Bridge positions count the residues as written; N and C are the ends. Square brackets hold non-standard residues; d marks the D form. Peptide text beside a SMILES is read from it. Phe(4-COOH) = N[C@@H](Cc1ccc(C(=O)O)cc1)C(=O)O; Phe(2,4-Cl2) = N[C@@H](Cc1ccc(Cl)cc1Cl)C(=O)O; Bip = N[C@@H](Cc1ccc(-c2ccccc2)cc1)C(=O)O; dPhe(4-NH2) = Nc1ccc(C[C@@H](N)C(=O)O)cc1; Phe(4-Br) = N[C@@H](Cc1ccc(Br)cc1)C(=O)O; Phe(4-NH2) = Nc1ccc(C[C@H](N)C(=O)O)cc1; d(hPhe) = N[C@H](CCc1ccccc1)C(=O)O; d2Thi = N[C@H](Cc1cccs1)C(=O)O; Suc = O=C(CCC(=O)[*:2])[*:1]; Ac3c = NC1(C(=O)O)CC1; Aib = CC(C)(N)C(=O)O; Ava = NCCCCC(=O)O; GABA = NCCCC(=O)O; βAla = NCCC(=O)O

T1 sequence (P01375 77-233 limits assumed, species assumed): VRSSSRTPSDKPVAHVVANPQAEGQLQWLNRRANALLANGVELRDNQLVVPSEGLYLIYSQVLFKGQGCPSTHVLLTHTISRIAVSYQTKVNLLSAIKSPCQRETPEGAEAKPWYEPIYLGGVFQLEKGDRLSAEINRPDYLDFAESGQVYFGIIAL

This assay concerns the target T1, TNFα / TNFα receptor (TNFα R1/Fc) (Homo sapiens, UniProt P01375).
T1 construct: purchased R&D Systems
Kind of assay: Inhibition of binding of TNFα to the TNFα receptor (plate ELISA competition). Conditions: Table 2; read-out: Activity (IC50, inhibition of TNFα binding to TNFα R1/Fc). The method, boiled down:
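Compound dilutions were preincubated 30 min at RT with 8.33 nM TNFα R1/Fc in PBST with 2% DMSO, then added to wells coated with 15 nM TNFα for 30 min. Bound receptor was detected with HRP anti-human Fc and TMB, read as A450.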
(In an ELISA, binding on a coated surface is turned into a signal by an enzyme label.)
Turning to `O=C(O)CCNC(=O)[C@@H]1Cc2ccc(cc2)C(=O)N[C@H](CCc2ccccc2)C(=O)N[C@@H](Cc2ccc(-c3ccccc3)cc2)C(=O)N[C@H](Cc2ccccc2)C(=O)N1` [Compound 424] ([d(hPhe)][Bip][dF][Phe(4-COOH)][βAla]-OH; lactam N-4), the IC50 is less than 10 µM.
As to `O=C(O)CCCNC(=O)[C@@H]1Cc2ccc(cc2)C(=O)N[C@H](CCc2ccccc2)C(=O)N[C@@H](Cc2ccc(-c3ccccc3)cc2)C(=O)N[C@H](Cc2ccccc2)C(=O)N1` [Compound 425] ([d(hPhe)][Bip][dF][Phe(4-COOH)][GABA]-OH; lactam N-4), the IC50 fell in the range of 30 to 100 µM.
Consider `O=C1COc2ccc(cc2)C[C@@H](C(=O)O)NC(=O)[C@H](Cc2ccc(O)cc2)NC(=O)[C@@H](Cc2ccc(-c3ccccc3)cc2)NC(=O)[C@H](Cc2cccs2)N1` [Compound 427], for which the IC50 was more than 100 µM.
With `O=C(O)[C@H](Cc1ccccc1)NC(=O)[C@H]1Cc2ccc(cc2)NC(=O)[C@H](O)[C@@H](O)C(=O)N[C@H](Cc2cccs2)C(=O)N[C@@H](Cc2ccc(-c3ccccc3)cc2)C(=O)N[C@H](CCc2ccccc2)C(=O)N1` [Compound 429] the figure was less than 10 µM; with `O=C(O)[C@H](Cc1ccccc1)NC(=O)[C@H]1Cc2ccc(cc2)NC(=O)[C@H](O)[C@@H](O)C(=O)N[C@H](Cc2cccs2)C(=O)N[C@@H](Cc2ccc(-c3ccccc3)cc2)C(=O)N[C@H](Cc2ccccc2)C(=O)N1` [Compound 430], 10 to 30 µM; with `O=C(O)[C@H](Cc1ccccc1)NC(=O)[C@H]1Cc2ccc(cc2)NC(=O)[C@H](O)[C@@H](O)C(=O)N[C@H](Cc2cccs2)C(=O)N[C@@H](Cc2ccc(Br)cc2)C(=O)N[C@H](Cc2ccccc2)C(=O)N1` [Compound 431], more than 100 µM.
With `O=C(O)[C@H](Cc1ccccc1)NC(=O)[C@H]1Cc2ccc(cc2)NC(=O)[C@H](O)[C@@H](O)C(=O)N[C@@H](Cc2cccs2)C(=O)N[C@H](Cc2ccc(-c3ccccc3)cc2)C(=O)N[C@@H](CCc2ccccc2)C(=O)N1` [Compound 432] the figure was less than 10 µM; with `O=C(O)[C@H](Cc1ccccc1)NC(=O)[C@@H]1Cc2ccc(cc2)NC(=O)[C@H](O)[C@@H](O)C(=O)N[C@@H](Cc2cccs2)C(=O)N[C@H](Cc2ccc(-c3ccccc3)cc2)C(=O)N[C@@H](CCc2ccccc2)C(=O)N1` [Compound 433], more than 100 µM.
Turning to `O=C(O)[C@H](Cc1ccccc1)NC(=O)[C@H]1Cc2ccc(cc2)NC(=O)[C@H](O)[C@@H](O)C(=O)N[C@@H](Cc2cccs2)C(=O)N[C@H](Cc2ccc(-c3ccccc3)cc2)C(=O)N[C@@H](Cc2ccccc2)C(=O)N1` [Compound 434], the IC50 was less than 10 µM.
Take `O=C(O)[C@H](Cc1ccccc1)NC(=O)[C@@H]1Cc2ccc(cc2)NC(=O)[C@H](O)[C@@H](O)C(=O)N[C@@H](Cc2cccs2)C(=O)N[C@H](Cc2ccc(-c3ccccc3)cc2)C(=O)N[C@@H](Cc2ccccc2)C(=O)N1` [Compound 435]: the IC50 is less than 10 µM.
For `O=C(O)[C@H](Cc1ccccc1)NC(=O)[C@H]1Cc2ccc(cc2)NC(=O)[C@H](O)[C@@H](O)C(=O)N[C@@H](Cc2cccs2)C(=O)N[C@H](Cc2ccc(Br)cc2)C(=O)N[C@@H](CCc2ccccc2)C(=O)N1` [Compound 436] the value was less than 10 µM; for `O=C(O)[C@H](Cc1ccccc1)NC(=O)[C@@H]1Cc2ccc(cc2)NC(=O)[C@H](O)[C@@H](O)C(=O)N[C@@H](Cc2cccs2)C(=O)N[C@H](Cc2ccc(Br)cc2)C(=O)N[C@@H](CCc2ccccc2)C(=O)N1` [Compound 437], 10 to 30 µM; for `O=C(O)[C@H](Cc1ccccc1)NC(=O)[C@H]1Cc2ccc(cc2)NC(=O)[C@H](O)[C@@H](O)C(=O)N[C@@H](Cc2cccs2)C(=O)N[C@H](Cc2ccc(Br)cc2)C(=O)N[C@@H](Cc2ccccc2)C(=O)N1` [Compound 438], less than 10 µM.
Take `O=C(O)[C@H](Cc1ccccc1)NC(=O)[C@@H]1Cc2ccc(cc2)NC(=O)[C@H](O)[C@@H](O)C(=O)N[C@@H](Cc2cccs2)C(=O)N[C@H](Cc2ccc(Br)cc2)C(=O)N[C@@H](Cc2ccccc2)C(=O)N1` [Compound 439]: the IC50 lay within 30 to 100 µM.
As for `O=C1CCC(=O)N[C@H](CCc2ccccc2)C(=O)N[C@@H](Cc2ccc(Br)cc2)C(=O)N[C@H](Cc2ccccc2)C(=O)N[C@@H](C(=O)N[C@@H](Cc2ccccc2)C(=O)O)Cc2ccc(cc2)N1` [Compound 440] ([d(hPhe)][Phe(4-Br)][dF][dPhe(4-NH2)]F-OH; linker N-4 via Suc), the IC50 is 10 to 30 µM.
`O=C1CCC(=O)N[C@H](CCc2ccccc2)C(=O)N[C@@H](Cc2ccc(Cl)cc2Cl)C(=O)N[C@H](Cc2ccccc2)C(=O)N[C@@H](C(=O)N[C@@H](Cc2ccccc2)C(=O)O)Cc2ccc(cc2)N1` [Compound 441] ([d(hPhe)][Phe(2,4-Cl2)][dF][dPhe(4-NH2)]F-OH; linker N-4 via Suc): the IC50 was 10 to 30 µM.
`O=C(O)[C@H](Cc1ccccc1)NC(=O)[C@@H]1Cc2ccc(cc2)NC(=O)[C@H](O)[C@@H](O)C(=O)N[C@H](Cc2cccs2)C(=O)N[C@@H](Cc2ccc(-c3ccc(Cl)cc3)cc2)C(=O)N[C@H](Cc2ccccc2)C(=O)N1` [Compound 443]: the IC50 lay within 10 to 30 µM.
Turning to `O=C1CCC(=O)N[C@H](Cc2cccs2)C(=O)N[C@@H](Cc2ccc(-c3ccccc3)cc2)C(=O)N[C@H](CCc2ccccc2)C(=O)N[C@H](C(=O)N[C@H](Cc2ccccc2)C(=O)O)Cc2ccc(cc2)N1` [Compound 444] ([d2Thi][Bip][d(hPhe)][Phe(4-NH2)][dF]-OH; linker N-4 via Suc), the IC50 lay in the range of 30 to 100 µM.
`O=C1CCC(=O)N[C@H](Cc2cccs2)C(=O)N[C@@H](Cc2ccc(-c3ccccc3)cc2)C(=O)N[C@H](CCc2ccccc2)C(=O)N[C@H](C(=O)N[C@@H](Cc2ccccc2)C(=O)O)Cc2ccc(cc2)N1` [Compound 445] ([d2Thi][Bip][d(hPhe)][Phe(4-NH2)]F-OH; linker N-4 via Suc): the IC50 fell in the range of 10 to 30 µM.
With `C[C@@H](NC(=O)[C@@H]1Cc2ccc(cc2)NC(=O)CCC(=O)N[C@H](Cc2cccs2)C(=O)N[C@@H](Cc2ccc(-c3ccccc3)cc2)C(=O)N[C@H](CCc2ccccc2)C(=O)N1)C(=O)O` [Compound 446] ([d2Thi][Bip][d(hPhe)][Phe(4-NH2)][dA]-OH; linker N-4 via Suc) the figure was more than 100 µM; with `C[C@H](NC(=O)[C@@H]1Cc2ccc(cc2)NC(=O)CCC(=O)N[C@H](Cc2cccs2)C(=O)N[C@@H](Cc2ccc(-c3ccccc3)cc2)C(=O)N[C@H](CCc2ccccc2)C(=O)N1)C(=O)O` [Compound 447] ([d2Thi][Bip][d(hPhe)][Phe(4-NH2)]A-OH; linker N-4 via Suc), more than 100 µM; with `O=C(O)CCNC(=O)[C@@H]1Cc2ccc(cc2)NC(=O)CCC(=O)N[C@H](Cc2cccs2)C(=O)N[C@@H](Cc2ccc(-c3ccccc3)cc2)C(=O)N[C@H](CCc2ccccc2)C(=O)N1` [Compound 448] ([d2Thi][Bip][d(hPhe)][Phe(4-NH2)][βAla]-OH; linker N-4 via Suc), 10 to 30 µM.
`O=C(O)CCCNC(=O)[C@@H]1Cc2ccc(cc2)NC(=O)CCC(=O)N[C@H](Cc2cccs2)C(=O)N[C@@H](Cc2ccc(-c3ccccc3)cc2)C(=O)N[C@H](CCc2ccccc2)C(=O)N1` [Compound 449] ([d2Thi][Bip][d(hPhe)][Phe(4-NH2)][GABA]-OH; linker N-4 via Suc): the IC50 was more than 100 µM.
Take `O=C(O)CCCCNC(=O)[C@@H]1Cc2ccc(cc2)NC(=O)CCC(=O)N[C@H](Cc2cccs2)C(=O)N[C@@H](Cc2ccc(-c3ccccc3)cc2)C(=O)N[C@H](CCc2ccccc2)C(=O)N1` [Compound 450] ([d2Thi][Bip][d(hPhe)][Phe(4-NH2)][Ava]-OH; linker N-4 via Suc): the IC50 fell in the range of 30 to 100 µM.
As to `O=C1CCC(=O)N[C@H](Cc2cccs2)C(=O)N[C@@H](Cc2ccc(-c3ccccc3)cc2)C(=O)N[C@H](CCc2ccccc2)C(=O)N[C@H](C(=O)NC2(C(=O)O)CC2)Cc2ccc(cc2)N1` [Compound 451] ([d2Thi][Bip][d(hPhe)][Phe(4-NH2)][Ac3c]-OH; linker N-4 via Suc), the IC50 lay within 30 to 100 µM.
Turning to `CC(C)(NC(=O)[C@@H]1Cc2ccc(cc2)NC(=O)CCC(=O)N[C@H](Cc2cccs2)C(=O)N[C@@H](Cc2ccc(-c3ccccc3)cc2)C(=O)N[C@H](CCc2ccccc2)C(=O)N1)C(=O)O` [Compound 452] ([d2Thi][Bip][d(hPhe)][Phe(4-NH2)][Aib]-OH; linker N-4 via Suc), the IC50 is more than 100 µM.
For `O=C(O)CNC(=O)[C@@H]1Cc2ccc(cc2)NC(=O)CCC(=O)N[C@H](Cc2cccs2)C(=O)N[C@@H](Cc2ccc(-c3ccccc3)cc2)C(=O)N[C@H](CCc2ccccc2)C(=O)N1` [Compound 453] ([d2Thi][Bip][d(hPhe)][Phe(4-NH2)]G-OH; linker N-4 via Suc), the IC50 was more than 100 µM.
As to `O=C1CCC(=O)N[C@H](Cc2ccccc2)C(=O)N[C@@H](Cc2ccc(-c3ccccc3)cc2)C(=O)N[C@H](CCc2ccccc2)C(=O)N[C@H](C(=O)O)Cc2ccc(cc2)N1` [Compound 454] ([dF][Bip][d(hPhe)][Phe(4-NH2)]-OH; linker N-4 via Suc), the IC50 fell in the range of 10 to 30 µM.
Consider `O=C1CCC(=O)N[C@H](Cc2ccccc2)C(=O)N[C@@H](Cc2ccc(-c3ccccc3)cc2)C(=O)N[C@H](CCc2ccccc2)C(=O)N[C@H](C(=O)N[C@H](Cc2ccccc2)C(=O)O)Cc2ccc(cc2)N1` [Compound 455] ([dF][Bip][d(hPhe)][Phe(4-NH2)][dF]-OH; linker N-4 via Suc), for which the IC50 is more than 100 µM.
For `O=C1CCC(=O)N[C@H](Cc2ccccc2)C(=O)N[C@@H](Cc2ccc(-c3ccccc3)cc2)C(=O)N[C@H](CCc2ccccc2)C(=O)N[C@H](C(=O)N[C@@H](Cc2ccccc2)C(=O)O)Cc2ccc(cc2)N1` [Compound 456] ([dF][Bip][d(hPhe)][Phe(4-NH2)]F-OH; linker N-4 via Suc), the IC50 was more than 100 µM.
For `C[C@@H](NC(=O)[C@@H]1Cc2ccc(cc2)NC(=O)CCC(=O)N[C@H](Cc2ccccc2)C(=O)N[C@@H](Cc2ccc(-c3ccccc3)cc2)C(=O)N[C@H](CCc2ccccc2)C(=O)N1)C(=O)O` [Compound 457] ([dF][Bip][d(hPhe)][Phe(4-NH2)][dA]-OH; linker N-4 via Suc) the value was more than 100 µM.
